Experimental data from PubChem BioAssay (NCI).
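Step 1: Grow cells in 96-well plates. Step 2: Expose to compound for 48 hours at 5 concentrations. Step 3: Interpolate endpoints linearly; if unreached, use highest concentration. The concentration for full growth arrest is given as TGI.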

Assays:
Assay in all cases: NCI-60 cell line screen, 48 h
786-0 renal = test system: 786-0 renal
A498 renal = test system: A498 renal
A549 NSCLC = test system: A549 NSCLC
ACHN renal = test system: ACHN renal
BT-549 breast = test system: BT-549 breast
CAKI-1 renal = test system: CAKI-1 renal
CCRF-CEM leukemia = test system: CCRF-CEM leukemia
COLO 205 colon = test system: COLO 205 colon
DU-145 prostate = test system: DU-145 prostate
EKVX NSCLC = test system: EKVX NSCLC
HCC-2998 colon = test system: HCC-2998 colon
HCT-15 colon = test system: HCT-15 colon
HL-60(TB) leukemia = test system: HL-60(TB) leukemia
HOP-62 NSCLC = test system: HOP-62 NSCLC
HOP-92 NSCLC = test system: HOP-92 NSCLC
HS 578T breast = test system: HS 578T breast
IGROV1 ovarian = test system: IGROV1 ovarian
K-562 leukemia = test system: K-562 leukemia
KM12 colon = test system: KM12 colon
MALME-3M melanoma = test system: MALME-3M melanoma
MCF7 breast = test system: MCF7 breast
MDA-MB-231 breast = test system: MDA-MB-231 breast
MDA-MB-435 = test system: MDA-MB-435
MOLT-4 leukemia = test system: MOLT-4 leukemia
NCI-H23 lung = test system: NCI-H23 lung
NCI-H460 lung = test system: NCI-H460 lung
NCI-H522 lung = test system: NCI-H522 lung
NCI/ADR-RES ovarian = test system: NCI/ADR-RES ovarian
OVCAR-3 ovarian = test system: OVCAR-3 ovarian
OVCAR-5 ovarian = test system: OVCAR-5 ovarian
OVCAR-8 ovarian = test system: OVCAR-8 ovarian
PC-3 prostate = test system: PC-3 prostate
RXF 393 renal = test system: RXF 393 renal
SF-268 CNS = test system: SF-268 CNS
SF-295 CNS = test system: SF-295 CNS
SF-539 CNS = test system: SF-539 CNS
SK-MEL-2 melanoma = test system: SK-MEL-2 melanoma
SK-MEL-28 melanoma = test system: SK-MEL-28 melanoma
SK-MEL-5 melanoma = test system: SK-MEL-5 melanoma
SN12C renal = test system: SN12C renal
SNB-19 CNS = test system: SNB-19 CNS
SNB-75 CNS = test system: SNB-75 CNS
SR leukemia = test system: SR leukemia
SW-620 colon = test system: SW-620 colon
T-47D breast = test system: T-47D breast
U251 CNS = test system: U251 CNS
UACC-62 melanoma = test system: UACC-62 melanoma
UO-31 renal = test system: UO-31 renal

`C/C(=N\Nc1nc2ccccc2s1)c1ncccn1` was tested, and the TGI (786-0 renal) was 15.8 µM, the TGI (A498 renal) was over 100 µM and the TGI (A549 NSCLC) was over 20 µM. The TGI (ACHN renal) was 0.177 µM, the TGI (BT-549 breast) was 3.42 µM and the TGI (CAKI-1 renal) was 5.62 µM. It also gave a TGI (CCRF-CEM leukemia) of over 100 µM, a TGI (COLO 205 colon) of 1.19 µM and a TGI (DU-145 prostate) of over 100 µM. For the same compound, the TGI (EKVX NSCLC) was 4.54 µM, the TGI (HCC-2998 colon) was 11.9 µM and the TGI (HCT-15 colon) was 2.45 µM. It also gave a TGI (HL-60(TB) leukemia) of over 100 µM, a TGI (HOP-62 NSCLC) of 5.78 µM and a TGI (HOP-92 NSCLC) of 1.1 µM. The TGI (HS 578T breast) was over 37.2 µM, the TGI (IGROV1 ovarian) was 0.923 µM and the TGI (K-562 leukemia) was over 100 µM. The TGI (KM12 colon) was 9.46 µM, the TGI (MALME-3M melanoma) was over 100 µM and the TGI (MCF7 breast) was over 100 µM. The TGI (MDA-MB-231 breast) was over 64.6 µM, the TGI (MDA-MB-435) was over 100 µM and the TGI (MOLT-4 leukemia) was over 53.9 µM. The TGI (NCI-H23 lung) was 1.11 µM, the TGI (NCI-H460 lung) was 15.6 µM and the TGI (NCI-H522 lung) was 16.5 µM. For the same compound, the TGI (NCI/ADR-RES ovarian) was 0.0681 µM, the TGI (OVCAR-3 ovarian) was 2.06 µM and the TGI (OVCAR-5 ovarian) was 22.7 µM. It also gave a TGI (OVCAR-8 ovarian) of 0.0505 µM, a TGI (PC-3 prostate) of 11.1 µM and a TGI (RXF 393 renal) of 4.68 µM. It also gave a TGI (SF-268 CNS) of 5.12 µM, a TGI (SF-295 CNS) of 3.78 µM and a TGI (SF-539 CNS) of 20 µM. It also gave a TGI (SK-MEL-2 melanoma) of 4.46 µM, a TGI (SK-MEL-28 melanoma) of over 100 µM and a TGI (SK-MEL-5 melanoma) of 0.219 µM. For the same compound, the TGI (SN12C renal) was 25.2 µM, the TGI (SNB-19 CNS) was over 100 µM and the TGI (SNB-75 CNS) was 5.58 µM. It also gave a TGI (SR leukemia) of 8.7 µM, a TGI (SW-620 colon) of over 69.2 µM and a TGI (T-47D breast) of over 100 µM. It also gave a TGI (U251 CNS) of over 100 µM, a TGI (UACC-62 melanoma) of 1.06 µM and a TGI (UO-31 renal) of 0.395 µM.
